Experimental data taken from US20080031866A1, “METHOD FOR MODULATING THE PHARMACOKINETICS AND METABOLISM OF A THERAPEUTIC AGENT” (priority 2006, published 2008).

Experiments:
[1] = Intracolonic dosing with and without β-glucuronidase, catheterized rat; format: in vivo; conditions: for AUC / Cmax / concentration at 0 h / concentration at 0.25 h / concentration at 0.5 h / concentration at 1 h / concentration at 2 h / concentration at 3 h / concentration at 4 h / concentration at 5 h / concentration at 6 h: male, Sprague Dawley, rat, plasma; for AUC / Cmax / concentration at 0 h / concentration at 0.25 h / concentration at 0.5 h / concentration at 1 h / concentration at 2 h / concentration at 3 h / concentration at 4 h / concentration at 5 h / concentration at 6 h / AUC average ± standard deviation 0 to 6 hours: 10 mg/kg, rats N=6; for AUC: read-out: AUC average ± standard deviation 0 to 6 hours; for Cmax: read-out: Cmax average ± standard deviation; for concentration at 0 h / concentration at 0.25 h / concentration at 0.5 h / concentration at 1 h / concentration at 2 h / concentration at 3 h / concentration at 4 h / concentration at 5 h / concentration at 6 h: other: intracolonic
Procedure: A catheterized rat model was used in which the agent alone or agent and β-glucuronidase enzyme was administered intraduodenally or intracolonically. The intraduodenal and intracolonic dosing was intended to prevent the potential for loss of enzymatic activity when orally dosing the β-glucuronidase (e.g. by degradation in the stomach). […]
For the oral gavage dosing, Compound 1 was prepared in neat PEG-400. For the intraduodenal and intracolonic dosing solutions, Compound 1 was added to neat Tween 80, the mixture was sonicated for thirty minutes at 45° C. until Compound 1 was completely dissolved and then deionized (DI) water was added to form a solution consisting of 20% Tween 80 and 80% DI water by weight.
For the oral enzyme solutions, β-glucuronidase was added to the final formulation at a concentration of 57,600 units/ml.
For the intraduodenal and intracolonic dosing, male Sprague Dawley rats weighing 300-400 g were purchased from Charles River Labs. All rat experiments were conducted under approved animal protocols. The rats were catheterized at Charles River Labs and had one or more of the following chronic catheters for dosing and sampling: jugular/carotid, duodenal, and colonic. Rats were limited to only one GI catheter and one vascular catheter. For IV dosing, rats were purchased with jugular and carotid catheters for dosing in the jugular catheter and blood sampling through the carotid catheter. For intraduodenal/intracolonic dosing, rats had one of the GI catheters for dosing and a carotid catheter for blood sampling.
The surgeries were done two weeks prior to start of testing. Rats were fed 4 hours post dose administration. All rats were dosed without anesthesia and sacrificed at the end of the study.
(§1) A quantitative method for determining the amount of (6,7-dimethoxy-2,4-dihydro-indeno[1,2-c]pyrazol-3-yl)-(3-fluoro-phenyl)-amine Compound 1 and its major metabolites, glucuronide A (Cpd 1-GluA) and glucuronide B (Cpd 1-GluB) (see Scheme A) in rat plasma was developed using phenacetin as an internal standard. [drawing 1]
(§2) The two glucuronide conjugates were prepared and purified to permit accurate quantification of the levels of intact parent Compound 1 versus Cpd 1-GluA and Cpd 1-GluB. Each standard curve for Compound 1, Cpd 1-GluA, and Cpd 1-GluB generated from rat plasma included ten concentration levels. […] The quantitative procedure for each sample included: sample preparation, HPLC separation and mass spectrometry detection.
(§3) The rat plasma was prepared using protein precipitation techniques. Reference standards and quality control samples in rat plasma for Compound 1 were transferred to a 96 deep-well plate. The precipitation solution contained 100 ng/ml of internal standard in acetonitrile. 300 μl of precipitation solution were added to 100 μl of each standard, quality control and plasma sample. Samples were vortexed for 10 mins, then centrifuged at 4500 RPM for 10 mins. 10 μl of each sample were injected for LC/MS/MS analysis.
(§4) The HPLC column chosen for the bioanalysis was purchased from Thermo Electron (Hypersil BetaBasic C18, 5 cm×2.1 mm). The eluting solvents were composed of Solvent A: 0.1% formic acid in H2O and Solvent B: 0.1% formic acid in acetonitrile. A step gradient was used and flow rate was 300 μl/min. The total run time was 3.2 mins. Solvent B was increased from 35% at 0 min to 75% at 2.1 mins and decreased back to 35% at 2.2 mins. The retention times for Compound 1, phenacetin, Cpd 1-GluA and Cpd 1-GluB were 1.1 min, 0.9 min, 1.3 min, and 1.6 min, respectively.
API3000 with a Turbo Ionspray interface from Applied Biosystems was used for the detection of Compound 1, the internal standard and major metabolites. Electrospray ionization was performed in the positive ion mode heated nebulizer with a temperature of 300° C. LC/MS/MS chromatograms were acquired in MRM (multiple reaction mode). […]

[2] = IV pharmacokinetics of Compound 1 and its glucuronides in rats; format: in vivo, rat; conditions: Sprague Dawley, rat, plasma, Compound 1 2 mg/kg IV
Procedure: Two separate IV studies were carried out using two separate lots of animals. IV-A was run on the same lot of animals as the oral gavage study and IV-B was run on the same lot of animals as the intraduodenal and intra-colonic studies.
For the IV dosing solutions (IV), Compound 1 was prepared by addition to DI water containing 20% hydroxypropyl β-cyclodextran by weight.
For the IV and oral gavage dosing (sampling at jugular and portal vein), young adult male Sprague Dawley rats weighing 250-400 g were purchased from Hilltop Lab Animals Inc. All rat experiments were conducted under approved animal protocols. The rats for the oral gavage dosing were catheterized at Hilltop Lab Animals Inc, had two chronic catheters for sampling: jugular and portal, were housed in cages of Culex™ Automated Blood Sampler (ABS) and blood samples were collected simultaneously via both cannula and were controlled by the Culex™ ABS control software.
as §1, §2, §3, §4
API3000 with a Turbo Ionspray interface from Applied Biosystems was used for the detection of Compound 1, the internal standard and major metabolites. Electrospray ionization was performed in the positive ion mode heated nebulizer with a temperature of 300° C. LC/MS/MS chromatograms were acquired in MRM (multiple reaction mode). The MRM transitions for Compound 1, the internal standard, Cpd 1-GluA and Cpd 1-GluB were from 326.3 to 190.6, 181.1 to 110.3, 502.2 to 368.3 and 502.2 to 326.4, respectively.
Pharmacokinetic analysis of the plasma concentration data was performed to determine the maximum plasma concentration (Cmax) for the oral dose, and the concentration at zero time (C0; Compound 1 only) by the extrapolation of drug concentrations back to the time of i.v. dosing, the time to maximum plasma concentration (Tmax) following the oral dose, area under the plasma concentration vs. time curve (AUC), terminal half-life (t1/2), plasma clearance (CL/F; Compound 1 only), and volume of distribution at steady state (Vdss; Compound 1 only) for the i.v. dose, using the WinNonlin (Version 3.1, Pharsight, Palo Alto, Calif.) validated computer program.

[3] = Compound 1 10 mg/kg intracolonic with β-glucuronidase
[4] = Compound 1 10 mg/kg intracolonic without enzyme

COc1cc2c(cc1OC)-c1n[nH]c(N(c3cccc(F)c3)[C@H]3O[C@@H](C(=O)O)[C@H](O)[C@@H](O)[C@@H]3O)c1C2 [Cpd 1-GluA]
AUC [1, 3]: 1770 ng·h/mL
Cmax [1, 3]: 755 ± 509 ng/mL
AUC [1, 4]: 5060 ng·h/mL
Cmax [1, 4]: 1550 ± 1050 ng/mL
concentration at 0 h [1, 3]: 0 ng/mL
concentration at 0.25 h [1, 3]: 6450 ng/mL
concentration at 0.5 h [1, 3]: 4820 ng/mL
concentration at 1 h [1, 3]: 3860 ng/mL
concentration at 2 h [1, 3]: 812 ± 426 ng/mL
concentration at 3 h [1, 3]: 462 ± 208 ng/mL
concentration at 4 h [1, 3]: 480 ± 107 ng/mL
concentration at 5 h [1, 3]: 420 ± 74.1 ng/mL
concentration at 6 h [1, 3]: 462 ± 113 ng/mL
concentration at 0 h [1, 4]: 0 ng/mL
concentration at 0.25 h [1, 4]: 666 ± 198 ng/mL
concentration at 0.5 h [1, 4]: 6450 ng/mL
concentration at 1 h [1, 4]: 4820 ng/mL
concentration at 2 h [1, 4]: 3860 ng/mL
concentration at 3 h [1, 4]: 66.6 ± 42 ng/mL
concentration at 4 h [1, 4]: 88.2 ± 53.9 ng/mL
concentration at 5 h [1, 4]: 83.1 ± 23.2 ng/mL
concentration at 6 h [1, 4]: 90.2 ± 28.1 ng/mL
AUC intracolonic relative to intraduodenal ([1]; no enzyme present): 4.3 times
AUC average ± standard deviation 0 to 6 hours [1, 3]: 1,767.6 ± 1,282.3 ng · hr/ml
AUC average ± standard deviation 0 to 6 hours [1, 4]: 5061.9 ± 1,656.0 ng · hr/ml
AUC ([2]; male rats N=4, read-out: AUC average ± standard deviation): 8210 ng·h/mL
Cmax ([2]; male rats N=4, read-out: Cmax average ± standard deviation): 2970 ng/mL
concentration at 0 h ([2]; male rats N=4, retro orbital sinus, 0 hrs): 0 ng/mL
concentration at 0.08 h ([2]; male rats N=4, retro orbital sinus, 0.08 hrs): 2440 ng/mL
concentration at 0.33 h ([2]; male rats N=4, retro orbital sinus, 0.33 hrs): 2970 ng/mL
concentration at 1 h ([2]; male rats N=4, retro orbital sinus, 1 hr): 1670 ng/mL
concentration at 2 h ([2]; male rats N=4, retro orbital sinus, 2 hrs): 492 ng/mL
concentration at 4 h ([2]; male rats N=4, retro orbital sinus, 4 hrs): 68.6 ng/mL
concentration at 8 h ([2]; male rats N=4, retro orbital sinus, 8 hrs): 369 ng/mL
concentration at 24 h ([2]; male rats N=4, retro orbital sinus, 24 hrs): 18.6 ng/mL
Tmax ([2]; male rats): 18 min
